In BindingDB's records for doi:10.1074/jbc.M112.442335 (University of Notre Dame, 2013):

Target: T1, Coproheme decarboxylase (Staphylococcus aureus, UniProt Q2YS77)
T1 sequence (Q2YS77 whole entry): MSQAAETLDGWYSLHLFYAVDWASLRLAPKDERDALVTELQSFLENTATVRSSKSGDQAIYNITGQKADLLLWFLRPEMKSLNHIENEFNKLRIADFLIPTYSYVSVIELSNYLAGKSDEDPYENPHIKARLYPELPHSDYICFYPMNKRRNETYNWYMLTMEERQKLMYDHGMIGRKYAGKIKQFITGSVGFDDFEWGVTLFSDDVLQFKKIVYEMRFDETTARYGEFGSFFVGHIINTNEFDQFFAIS
Experiment: Fluorescence Titration Assay
Details: pH 6.8
Description: Titrations using fluorescence spectroscopy were carried out on a Jobin Yvon Horiba FluoroMax-3 fluorimeter in scanning mode. Apo-HemQ (5 μM) was diluted in 0.1 M potassium phosphate buffer, pH 6.8, and titrated with stocks of heme (1 mM in0.1 M NaOH) and protoporphyrin IX (1 mM in DMSO) each diluted to 500 μM at 25 °C.

Kd: 2.21 µM
SMILES: C=Cc1c(C)c2cc3[nH]c(cc4nc(cc5nc(cc1[nH]2)C(C)=C5CCC(=O)O)C(CCC(=O)O)=C4C)c(C)c3C=C
